Measurements: US9018187B2, “Cationic lipids and methods for the delivery of therapeutic agents” (Protiva Biotherapeutics, Inc., priority 2009, dated 2015)

Tests used:
[1] = TNS assay, apparent pKa of cationic lipid in 1:57 SNALP; details: 1:57 SNALP formulation containing encapsulated APOB siRNA
Description: 1:57 SNALP formulations containing encapsulated APOB siRNA were prepared as described in Section VI above with the following cationic lipids: (1) DLinDMA; (2) DLenDMA; (3) γ-DLenDMA (“g-DLenDMA”); (4) C2-DLinDAP; (5) DLinPip (4-OH); (6) DLinPip; (7) DLinPip (3-OH); (8) DLinDEA; (9) DDocDMA; (10) DAraDMA; (11) TLinDMA; (12) DLin-C2K Pip (30H); (13) DHep-C2K-DMA; (14) DPanDMA; (15) C2-DPanDMA (“DPan-C2-DMA”); (16) DPan-C2K-DMA; (17) DPan-C3K-DMA; (18) DPan-K6-DMA (“DPan-C1K6-DMA”); and (19) C2-TLinDMA.
The apparent pKa of the cationic lipids present in these SNALP formulations was determined using a 2-(p-toluidinyl)-naphthalene-6-sodium sulfonate (TNS) assay. TNS is a negatively-charged indicator of membrane potential that is electrostatically attracted to positively charged membranes (see, Bailey and Cullis, Biochemistry, 33 12573-80 (1994)). Subsequent adsorption to the lipid membrane results in the immediate environment of the TNS becoming more lipophilic, removing the water molecules that otherwise quench TNS fluorescence. As a result, TNS measures the surface potential of the particle, wherein the more positive the surface potential, the greater the level of fluorescence. The surface pKa values of each SNALP formulation were determined by varying the local pH in the presence of TNS. By plotting fluorescence versus pH, the pKa of the cationic lipid can be estimated in the particle as the pH where fluorescence equals 50% of total fluorescence.

liver ApoB mRNA = test: Liver ApoB mRNA knockdown by 1:57 SNALP with APOB siRNA in mice; format: in vivo, mouse; details: for ApoB knockdown: similar study with 1:57 SNALP containing C2-TLinDMA (Example 16); for ApoB silencing activity (liver ApoB mRNA): 6:1 L:D, IV 0.1 mg/kg
Description: Each SNALP formulation was administered by intravenous (IV) injection at 0.1 mg/kg into female Balb/c mice (n=3 per group). Plasma total cholesterol and/or liver ApoB mRNA levels were evaluated at 48 hours after SNALP administration. For dose response studies, SNALP formulations were administered by IV injection at 0.01 mg/kg, 0.03 mg/kg, or 0.1 mg/kg into female Balb/c mice (n=3 per group). Liver ApoB mRNA levels were evaluated at 48 hours after SNALP administration.
1:57 SNALP formulations containing encapsulated APOB siRNA at a 6:1 lipid:drug (L:D) ratio were prepared with the following cationic lipids: (1) DLinDMA; (2) Linoleyl/Linolenyl DMA (“Lin/LenDMA”); (3) DPanDMA; (4) TLinDMA; (5) Linoleyl/C6:0 DMA (“Lin/6:0”); (6) C2-DPanDMA; (7) DLin-C2K-Pip (30H); and (8) DHep-C2K-DMA.
(§1) Each SNALP formulation was administered by intravenous (IV) injection at 0.1 mg/kg into female Balb/c mice (n=3 per group). Livers were colleted at 48 hours after SNALP administration and liver ApoB mRNA levels were evaluated by performing an ApoB/GAPDH QG assay. Table 2 provides a characterization of the SNALP formulations used in this in vivo study.
In another study, 1:57 SNALP formulations containing encapsulated APOB siRNA at a 6:1 L:D ratio were prepared with the following cationic lipids: (1) DLinDMA; (2) C2-DPanDMA; (3) DPan-C2K-DMA; (4) DPan-C3K-DMA; and (5) DPan-C1K6-DMA.
as §1, with “3” for “2”
For dose response studies, SNALP formulations were administered by IV injection at 0.01 mg/kg, 0.033 mg/kg, or 0.1 mg/kg into female Balb/c mice (n=3 per group). Liver ApoB mRNA levels were evaluated at 48 hours after SNALP administration by a branched DNA assay (QuantiGene assay) to assess ApoB mRNA relative to the housekeeping gene GAPDH.

[2] = Characterization of SNALP formulations (size, polydispersity, encapsulation); format: physicochemical; details: Table 5; for Initial Encaps. (%): 7:54 SNALP (PEG750-C-DMA 6.76 | cationic 54.06 | Chol 32.43 | DPPC 6.75 mol %) with PLK-1 siRNA; for Finished Product Encaps. (%) / Finished Product Poly / Finished Product Z-Avg (nm): 7:54 SNALP with PLK-1 siRNA
Description: In the context of nucleic acids, full encapsulation may be determined by performing a membrane-impermeable fluorescent dye exclusion assay, which uses a dye that has enhanced fluorescence when associated with nucleic acid. Specific dyes such as OliGreen® and RiboGreen® (Invitrogen Corp.; Carlsbad, Calif.) are available for the quantitative determination of plasmid DNA, single-stranded deoxyribonucleotides, and/or single- or double-stranded ribonucleotides. Encapsulation is determined by adding the dye to a liposomal formulation, measuring the resulting fluorescence, and comparing it to the fluorescence observed upon addition of a small amount of nonionic detergent. Detergent-mediated disruption of the liposomal bilayer releases the encapsulated nucleic acid, allowing it to interact with the membrane-impermeable dye. Nucleic acid encapsulation may be calculated as E=(Io−I)Io, where I and Io refer to the fluorescence intensities before and after the addition of detergent (see, Wheeler et al., Gene Ther., 6:271-281 (1999)). […]
Each SNALP formulation was administered by intravenous (IV) injection at 3 mg/kg into Scid mice containing Hep3B tumors (n=4 per group). Tumor tissue was colleted at 24 hours after SNALP administration and tumor PLK-1 mRNA levels were evaluated by performing a PLK-1/GAPDH QG assay. Table 5 provides a characterization of the SNALP formulations used in this in vivo study.

[3] = tested on: ApoB mRNA in ApoE−/− primary hepatocytes; test: ApoB silencing in ApoE−/− primary hepatocytes after serum pre-incubation of SNALP; format: cell-based, mouse; details: FIGS. 12-14; 1:57 SNALP pre-incubated with C57 or ApoE−/− serum, 40-0.625 nM siRNA on hepatocytes, 24 hr
Description: ApoE−/− primary hepatocytes were isolated and plated at 2.5×10^4 cells/well. Each SNALP formulation was pre-incubated with 50% C57 (ApoE-containing) serum or ApoE−/− serum at siRNA concentrations of 4000-62.5 nM for 1 hr at 37° C. Samples were then diluted to 40-0.625 nM on the hepatocytes for 24 hr. After 24 hr, cells were lysed and ApoB and GAPD mRNA levels were measured via bDNA (QG) assay.

[4] = Tolerability of 1:57 SNALP, liver enzyme levels; format: in vivo, mouse; details: FIG. 7, single IV bolus 10, 15 or 20 mg/kg, Balb/c mice, 48 hours post-injection, vs PBS control
Description: The tolerability of the 1:57 γ-DLenDMA SNALP formulation was evaluated with a single IV bolus injection of SNALP at either 10 mg/kg, 15 mg/kg, or 20 mg/kg in Balb/c mice (n=3 per group). Liver enzyme levels were measured at 48 hours post-injection.

[5] = Example 16, FIG. 8, 1:57 SNALP, female Balb/c mice, 48 hours, ApoB/GAPDH QG assay
[6] = Example 16 second study, FIG. 9, 1:57 SNALP, female Balb/c mice, 48 hours

| Compound | pKa [1] | Initial Encaps. (%) [2] | Finished Product Encaps. (%) [2] | Finished Product Poly [2] | Finished Product Z-Avg (nm) [2] | also measured |
| --- | --- | --- | --- | --- | --- | --- |
| CCCCC/C=C\C/C=C\CCCCCCCCOCC(COCC(CCN(C)C)OCCCCCCCC/C=C\C/C=C\CCCCC)OCCCCCCCC/C=C\C/C=C\CCCCC (stereo not drawn) [Compound C2-TLinDMA] | ~5.85 | – | – | – | – | ApoB knockdown (liver ApoB mRNA): 49% |
| CCCCC/C=C\C/C=C\CCCCCCCCC1(CCCCCCCC/C=C\C/C=C\CCCCC)OCC(CCN2CCCC(O)C2)O1 (stereo not drawn) [DLin-C2K Pip (30H)] | ~6.05 | – | – | – | – | – |
| CCCCC/C=C\C/C=C\CCCCCCCCOCC(CN(C)C)OCCCCCCCC/C=C\C/C=C\CCCCC (stereo not drawn) [DLinDMA, 1,2-dilinoleyloxy-N,N-dimethylaminopropane, reference compound] | – | 75% | 98% | 0.08 | 74 nm | ApoB knockdown (liver ApoB mRNA): 25% |
| CC(C)CCCC(C)CCCC(C)CCCC(C)CCC1(CCC(C)CCCC(C)CCCC(C)CCCC(C)C)OCC(CN(C)C)CO1 (stereo not drawn) [DPan-C1K6-DMA] | ~5.5 | 71% | 99% | 0.06 | 80 nm | – |
| CC/C=C\C/C=C\C/C=C\CCCCCCCCOC(COCCCCCCCC/C=C\C/C=C\CCCCC)CN(C)C (stereo not drawn) [Linoleyl/Linolenyl DMA] | – | – | – | – | – | liver ApoB mRNA knockdown activity (silencing ApoB expression) (liver ApoB mRNA; Example 14, FIGS. 3-6, 1:57 SNALP with APOB siRNA, IV 0.1 mg/kg (dose response 0.01, 0.03, 0.1 mg/kg), female Balb/c mice, 48 hours): greater ApoB silencing activity compared to a SNALP formulation containing DLinDMA; ApoB silencing activity (liver ApoB mRNA) (liver ApoB mRNA; [5]): more potent silencing activity than DLinDMA |
| CCCCCC=CCC=CCCCCCCCCC1(CCCCCCCC/C=C\C/C=C\CCCCC)OCC(CCCCN(C)C)O1 (stereo not drawn) [DLin-C4K-DMA] | – | – | – | – | – | ApoB silencing activity and its dependence on ApoE [3]: less dependent on ApoE compared to other formulations tested |
| CCCCC/C=C\C/C=C\CCCCCCCCC1(CCCCCCCC/C=C\C/C=C\CCCCC)OCC(CN(C)C)O1 (stereo not drawn) [DLin-C1K-DMA, reference compound] | – | 56% | 98% | 0.05 | 84 nm | – |
| CCCCC/C=C\C/C=C\CCCCCCCCC1(CCCCCCCC/C=C\C/C=C\CCCCC)OCC(CCCN(C)C)O1 (stereo not drawn) [DLin-C3K-DMA] | – | – | – | – | – | ApoB silencing activity and its dependence on ApoE [3]: less dependent on ApoE compared to other formulations tested |
| CCCCCCCC/C=C/CCCCCCCC1(CCCCCCC/C=C/CCCCCCCC)OCC(CCN(C)C)O1 (stereo not drawn) [DHep-C2K-DMA] | ~6.05 | – | – | – | – | ApoB silencing activity (liver ApoB mRNA) (liver ApoB mRNA; [5]): comparable to DLinDMA with respect to silencing activity |
| CCCCC/C=C\C/C=C\CCCCCCCCOCC(COCC(CN(C)C)OCCCCCCCC/C=C\C/C=C\CCCCC)OCCCCCCCC/C=C\C/C=C\CCCCC (stereo not drawn) [TLinDMA, 1-(2,3-linoleyloxypropoxy)-2-(linoleyloxy)-(N,N-dimethyl)-propyl-3-amine] | ~5.35 | 70% | 100% | 0.07 | 126 nm | ApoB silencing activity (liver ApoB mRNA) (liver ApoB mRNA; [5]): silencing activity that was comparable to DLinDMA |
| CCCCC/C=C\C/C=C\C/C=C\CCCCCOCC(CN(C)C)OCCCCC/C=C\C/C=C\C/C=C\CCCCC (stereo not drawn) [γ-DLenDMA, 1,2-Di-γ-linolenyloxy-N,N-dimethylaminopropane] | – | – | – | – | – | liver enzyme levels [4]: did not significantly elevate liver enzyme levels |
| CC/C=C\C/C=C\C/C=C\CCCCCCCCOCC(CN(C)C)OCCCCCCCC/C=C\C/C=C\C/C=C\CC (stereo not drawn) [DLenDMA, 1,2-dilinolenyloxy-N,N-dimethylaminopropane, reference compound] | – | – | – | – | – | liver enzyme levels [4]: did not significantly elevate liver enzyme levels; ApoB silencing activity and its dependence on ApoE [3]: greatest levels of silencing activity when ApoE-containing serum was present |
| CCCCC/C=C\C/C=C\C/C=C\CCCCCC1(CCCCC/C=C\C/C=C\C/C=C\CCCCC)OCC(CCN(C)C)O1 (stereo not drawn) [g-DLen-C2K-DMA] | – | – | – | – | – | KD50 value (liver ApoB mRNA; Example 17, FIG. 10, liver ApoB mRNA knockdown dose response): identical KD50 value compared to a SNALP formulation containing C2K |
| CC/C=C\C/C=C\C/C=C\CCCCCCCCC1(CCCCCCCC/C=C\C/C=C\C/C=C\CC)OCC(CCN(C)C)O1 (stereo not drawn) [DLen-C2K-DMA] | – | – | – | – | – | liver ApoB mRNA knockdown activity (liver ApoB mRNA; Example 17, FIG. 10, 1:57 SNALP, IV 0.01, 0.033 or 0.1 mg/kg, female Balb/c mice, 48 hours, QuantiGene assay vs GAPDH): considerable potency in silencing ApoB mRNA expression |
| CCCCC/C=C\C/C=C\C/C=C\C/C=C\CCCCOCC(CN(C)C)OCCCC/C=C\C/C=C\C/C=C\C/C=C\CCCCC (stereo not drawn) [DAraDMA, 1,2-Diarachidonyloxy-(N,N-dimethyl)-propyl-3-amine] | ~5.65 | – | – | – | – | – |
| CC(C)CCCC(C)CCCC(C)CCCC(C)CCC1(CCC(C)CCCC(C)CCCC(C)CCCC(C)C)OCC(CCCN(C)C)O1 (stereo not drawn) [DPan-C3K-DMA] | ~6.25 | 86% | 100% | 0.06 | 81 nm | ApoB silencing activity (liver ApoB mRNA) (liver ApoB mRNA; [6]): more potent compared to DLinDMA |
| CC/C=C\C/C=C\C/C=C\C/C=C\C/C=C\C/C=C\CCCOCC(CN(C)C)OCCC/C=C\C/C=C\C/C=C\C/C=C\C/C=C\C/C=C\CC (stereo not drawn) [DDocDMA, 1,2-Didocosahexaenyloxy-(N,N-dimethyl)-propyl-3-amine] | ~5.65 | – | – | – | – | – |
| CC(C)CCCC(C)CCCC(C)CCCC(C)CCC1(CCC(C)CCCC(C)CCCC(C)CCCC(C)C)OCC(CCN(C)C)O1 (stereo not drawn) [DPan-C2K-DMA] | ~5.95 | 84% | 100% | 0.08 | 76 nm | ApoB silencing activity (liver ApoB mRNA) (liver ApoB mRNA; [6]): more potent compared to DLinDMA |
